According to patent US20240182561A1, “CALCIUM VOLTAGE-GATED CHANNEL AUXILIARY SUBUNIT GAMMA 1 (CACNG1) BINDING PROTEINS AND CACNG1-MEDIATED DELIVERY TO SKELETAL MUSCLE” (Regeneron Pharmaceuticals, Inc., priority 2022, published 2024):

What was measured:
HEK293 = assay: Indirect (secondary) cell killing assay; assay type: cell-based, human; conditions: Table 11-3; maximum % kill
Excerpt: To test the ability of anti-CACNG1 antibodies described herein to bind, internalize, and deliver payloads, cell binding and indirect cell killing assays were developed with primary human skeletal myoblasts (Cook Myosite Cat #SkMDC SK-1111), C2C12 mouse myoblasts (ATCC Cat #CRL-1772), and HEK293 cells engineered to express human and mouse CACNG1 (HEK293/hCACNG1 and HEK293/mCACNG1, respectively). To generate the HEK293/hCACNG1 and HEK293/mCACNG1 cell lines, FuGEGE 6 (Promega, Cat #E2691/5/3) was used to transfect HEK293HZ cells with a human CACNG1 (hCACNG1; amino acid M1-H222, Accession #NP_000718.1) or mouse CACNG1 (mCACNG1; amino acid M1-H223, Accession #NP_031608.1) expression vector. HEK293HZ is a highly transfectable subclone of HEK293 cells (1) authenticated via STIR (short tandem repeat) profiling to be 81% identical to HEK293 cells sourced from ATCC). […]
(§1) An indirect cell killing assay was used to assess the ability of anti-CACNG1 antibodies to internalize and deliver payloads into cells. In vitro cytotoxicity of the anti-CACNG1 antibodies alone or in combination with Fab anti-human Fc or Fab anti-mouse Fc secondary antibodies conjugated to Duocarmycin DM (Moradec, Cat #AH-202-DD-50 or Cat #AM-202-DD-50) were evaluated using the CellTiter-Glo 2.0 Assay Kit (Promega, Cat #G9243), in which the quantity of ATP present is used to determine the number of viable cells in culture. […]

HEK293/hCACNG1 = target: T1, HEK293/hCACNG1 (Homo sapiens, UniProt Q06432); assay: Indirect (secondary) cell killing assay; assay type: cell-based; conditions: Table 11-3; maximum % kill = 100 - minimum percent viability
T1 construct: human CACNG1 (hCACNG1); expressed in transfected cells
Excerpt: (§2) To test the ability of anti-CACNG1 antibodies described herein to bind, internalize, and deliver payloads, cell binding and indirect cell killing assays were developed with primary human skeletal myoblasts (Cook Myosite Cat #SkMDC SK-1111), C2C12 mouse myoblasts (ATCC Cat #CRL-1772), and HEK293 cells engineered to express human and mouse CACNG1 (HEK293/hCACNG1 and HEK293/mCACNG1, respectively). To generate the HEK293/hCACNG1 and HEK293/mCACNG1 cell lines, FuGEGE 6 (Promega, Cat #E2691/5/3) was used to transfect HEK293HZ cells with a human CACNG1 (hCACNG1; amino acid M1-H222, Accession #NP_000718.1) or mouse CACNG1 (mCACNG1; amino acid M1-H223, Accession #NP_031608.1) expression vector. HEK293HZ is a highly transfectable subclone of HEK293 cells (1) authenticated via STIR (short tandem repeat) profiling to be 81% identical to HEK293 cells sourced from ATCC). The HEK293HZ cell line was maintained in DMEM+10% FBS+1% L-glutamine/penicillin/streptomycin, while HEK293/hCACNG1 and HEK293/mCACNG1 cell lines were maintained in DMEM+10% FBS+1% L-glutamine/penicillin/streptomycin+500 ug/mL G418. Human skeletal myoblasts (HuSKM) were maintained in MyoTonic Basal Media (Cook Myosite Cat #MB-2222) supplemented with MyoTonic Growth Supplement (Cook Myosite Cat #MS-3333) and grown in a 37° C. incubator with 5% CO2. HuSKM were seeded in collagen-coated 96-well plates (Greiner Bio-One #655956) at 8,500 cells/well and grown for 24 hours. The growth media was changed to MyoTonic Differentiation Media (Cook Myosite Cat #MD-5555) and replaced every 2 days. Myotubes were assayed after 6 days of differentiation. C2C12 mouse myoblasts were maintained in DMEM with 10% FBS and 1% penicillin-streptomycin supplement and grown in a 37° C. incubator with 5% CO2. C2C12 cells were seeded in collagen-coated 96-well plates (Greiner Bio-One #655956) at 10,000 cells/well for the cell binding assay and 5,000 cells/well for the cell killing assay. After 24 hours, growth media was replaced with differentiation media (DMEM with 2% horse serum) and placed in a 37° C. incubator with 7.5% CO2. C2C12 myotubes were assayed after 3 days of differentiation. […]
as §1

HEK293/mCACNG1 = target: T2, HEK293/mCACNG1 (Mus musculus, UniProt O70578); assay: Indirect (secondary) cell killing assay; assay type: cell-based; conditions: Table 11-3; maximum % kill
T2 construct: mouse CACNG1 (mCACNG1); expressed in transfected cells
T2 sequence (O70578 1-223): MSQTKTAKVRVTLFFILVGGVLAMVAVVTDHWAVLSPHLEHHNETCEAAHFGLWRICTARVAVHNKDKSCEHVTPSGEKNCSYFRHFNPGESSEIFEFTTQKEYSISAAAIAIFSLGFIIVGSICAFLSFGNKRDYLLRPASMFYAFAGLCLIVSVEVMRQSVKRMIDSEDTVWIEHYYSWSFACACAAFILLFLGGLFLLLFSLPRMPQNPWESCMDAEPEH
Excerpt: as §2, §1

mouse myotubes (C2C12) = assay: Indirect (secondary) cell killing assay; assay type: cell-based; conditions: Table 11-3; maximum % kill
Excerpt: as §2, §1

[1] = test system: primary human skeletal myotubes (HuSKM); assay: Indirect (secondary) cell killing assay; assay type: cell-based; conditions: Table 11-3; maximum % kill
Excerpt: as §2, §1

Dmpk = assay: In vivo siRNA durability of Dmpk knockdown; parameters: species or system mouse; conditions: 1 week post treatment, 3 and 5 mg/kg siRNA; FIGS. 13A-13E
Description: All doses were adjusted for drug-to-antibody (DAR) ratio, i.e., mice were dosed based on siRNA amount for body weight, as determined by liquid chromatography electrospray ionization approaches described herein. […] Mice were sacrificed at either 1 week, 3 weeks, or 6 weeks post dosing. […] The following tissues were placed into RNAlater (ThermoFisher Catalog #AM7021): gastrocnemius, soleus, quadricep, tibialis anterior, diaphragm, heart, liver, spleen, kidney. Tissues were allowed to sit in RNAlater for at least 2 hours at room temperature before being transferred to −20° C. Total RNA was purified using MagMAX™-96 for Microarrays Total RNA Isolation Kit Catalog #AM1839 (Ambion by Life Technologies) according to manufacturer's specifications. […] Samples were then reverse transcribed using SuperScript VILO MasterMix (Invitrogen Catalog #11755-250) according to manufacturer's specifications. For TaqMan gene expression analysis, TaqMan Gene Expression MasterMix (ThermoFisher Scientific Ref #4369016) was used according to manufacturer's specifications. The probes used in the assay were as followed: Dmpk FAM (ThermoFisher Mm00446261_m1) and Rplp0 (ThermoFisher Mm01974474_gH).

T1 sequence (Q06432 whole entry): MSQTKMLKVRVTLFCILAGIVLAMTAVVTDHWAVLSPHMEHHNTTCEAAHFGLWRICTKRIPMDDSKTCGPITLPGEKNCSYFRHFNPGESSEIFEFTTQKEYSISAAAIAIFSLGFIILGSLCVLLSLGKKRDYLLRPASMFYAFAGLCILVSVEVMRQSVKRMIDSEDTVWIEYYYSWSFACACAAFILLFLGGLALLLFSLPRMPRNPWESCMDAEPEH

Molecule | % KILL (HEK293) [%] | % KILL (HEK293/hCACNG1) [%] | % KILL (HEK293/mCACNG1) [%] | % KILL (mouse myotubes (C2C12)) [%] | % KILL [1] [%] | Dmpk knockdown in skeletal muscle (Dmpk)
COC(=O)c1cc2c([nH]1)C(=O)C=C1N(C(=O)c3cc4cc(OC)c(OC)c(OC)c4[nH]3)C[C@H]3C[C@]123 [Duocarmycin] | 99.6 | 99.7 | 99.8 | 99.6 | 97.3 | –
naked siRNA: siRNA against DMPK (siRNA1), SEQ ID NO: 416 sense and 417 antisense, used unconjugated as control (sense CCUCGGUAUUUAUUGUCUA; antisense UAGACAAUAAAUACCGAGG; listed as RNA, further chemistry not given here) | – | – | – | – | – | no noticeable knockdown
